Laboratory results as given in article PMC9032457, “Binding Interaction of Betulinic Acid to α-Glucosidase and Its Alleviation on Postprandial Hyperglycemia” (Molecules, 2022).
Read-outs that look alike come from different tables or passages of the source.

Experiments:
α-glucosidase [1] = target: T1, α-glucosidase (Saccharomyces cerevisiae, UniProt P53341); design: method as in PMID 29030193; conditions: literature; cited from earlier work
T1 construct: purchased Sigma-Aldrich

[2] = tested on: postprandial blood glucose level; experiment: Oral disaccharide tolerance test (ODTT); type: in vivo, BALB/c mice; conditions: normal mice, oral BA 20 mg/kg or acarbose 7 mg/kg; for postprandial blood glucose levels vs control: after mixed maltose-sucrose, p < 0.01; for blood glucose level at 30 min: mixed maltose-sucrose 2 g/kg, control 12.58 ± 0.47
Experimental: (§1) The dynamic characteristics of postprandial blood glucose level were evaluated by ODTT and OGTT, which were performed as described previously. BALB/c mice (5 weeks old, male) were purchased from Guangdong Medical Laboratory Animal Center (Guangzhou, China). The animal study was approved by the Committee on the Ethics of Animal Experiments of the Institute of Microbiology, Guangdong Academy of Science (GT-IACUC202012102). After one week of acclimation, the mice were randomly divided into a control group, BA-treated group and acarbose-treated group (n = 8), respectively. […] After 30 min, all the mice were intragastrically administered with the mixed maltose-sucrose solution (2 g/kg). In total, 10 μL of blood was collected by tail cut and glucose levels at 0, 30, 60, 90 and 120 min was measured by glucometer (Roche ACCU-CHEK Performa Nano), respectively. Two days later, all the mice were give the oral glucose tolerance test (OGTT), which was performed as the ODTT modus. The oral dose of glucose was also 2 g/kg.

[3] = tested on: postprandial blood glucose level; experiment: Oral glucose tolerance test (OGTT); type: in vivo, BALB/c mice; conditions: normal mice, oral BA 20 mg/kg or acarbose 7 mg/kg; glucose 2 g/kg
Experimental: as §1

α-glucosidase [4] = target: T1, α-glucosidase; experiment: α-Glucosidase inhibition assay (pNPG substrate); type: biochemical
Experimental: α-Glucosidase inhibition was assayed according to the methods described previously. Briefly, 40 μL phosphate buffer (0.1 M, pH = 6.8), 10 μL BA solutions and 50 μL α-glucosidase solution (0.4 U/mL) were added into 96-well plates and mixed thoroughly. After being incubated at 37 °C for 10 min, 50 μL pNPG solution (2.5 mM) was added to initiate the reaction and stayed at 37 °C for 30 min. Then, 40 μL Na2CO3 solution (1.0 M) was added to terminate the reaction. A microplate reader was employed to read the absorbance at 405 nm. The inhibition rates (%) = [(ODcontrol − ODcontrol blank) − (OD test − ODtest blank)]/(ODcontrol − ODcontrol blank) × 100%.

α-glucosidase [5] = target: T1, α-glucosidase; experiment: Enzyme inhibition kinetics (Lineweaver-Burk plot); type: biochemical
Experimental: α-Glucosidase inhibition kinetics was studied as previously reported. BA was set with the concentrations of 0, 12 and 24 μM for 0.2 U/mL α-glucosidase. A series of concentrations of pNPG were used as substrates. The inhibition type was determined by using the Lineweaver–Burk plots and its secondary equations. The kinetic parameters (Vmax and Ki) were evaluated by the nonlinear regression of the Michaelis–Menton equation with GraphPad Prism 7.0. (https://www.graphpad.com/support/prism-7-updates/, accessed on 12 May 2021).

α-glucosidase [6] = target: T1, α-glucosidase; experiment: SPR assay (Biacore T200); type: binding; conditions: 1:1 Langmuir model, enzyme immobilized on CM5 chip, read-out: equilibrium dissociation constant (KD)
Experimental: SPR analysis was applied on a Biacore T200 system (GE Healthcare, Uppsala, Sweden). α-Glucosidase solution (50 μg/mL) was prepared and stayed at room temperature for 30 min. Then, the activated α-glucosidase was immobilized on a CM5 sensor chip pre-activated by EDC/NHS with an amine coupling kit at a flow rate of 10 μL/min. BA solution of different concentrations containing 5% DMSO was serially injected over α-glucosidase coated surface. PBS was used as the mobile phase with a flow rate of 30 μL/min. According to the 1:1 Langmuir model, the equilibrium dissociation constant (KD) was calculated by the Biacore evaluation software. (https://www.cytivalifesciences.com/en/us/shop/protein-analysis/spr-label-free-analysis/software/biacore-insight-evaluation-software-p-23528, accessed on 26 October 2016).

α-glucosidase [7] = target: T1, α-glucosidase; design: method as in PMID 29902001, doi:10.1016/j.indcrop.2015.08.031, PMID 33876656; conditions: in vitro; read-out: IC50 against α-glucosidase, previous research; cited from earlier work
α-glucosidase [8] = target: T1, α-glucosidase; experiment: Combination of acarbose with BA on α-glucosidase activity; type: biochemical, yeast; design: key to Vab (observed residual activity) / Vc (expected residual activity): fraction of remaining α-glucosidase activity (0–1)
Experimental: The method was the same as the α-glucosidase activity assay. […] The value for BA (Vb) was also defined. If the inhibitory effects on α-glucosidase of the two compounds are independent, the final remnant activity fraction of α-glucosidase (Vc) is equal to VaVb when the reaction is sequentially treated by those two compounds. […] The types of interaction were determined by the relationship between Vab and Va, Vb, or Vc.

T1 sequence (P53341 whole entry): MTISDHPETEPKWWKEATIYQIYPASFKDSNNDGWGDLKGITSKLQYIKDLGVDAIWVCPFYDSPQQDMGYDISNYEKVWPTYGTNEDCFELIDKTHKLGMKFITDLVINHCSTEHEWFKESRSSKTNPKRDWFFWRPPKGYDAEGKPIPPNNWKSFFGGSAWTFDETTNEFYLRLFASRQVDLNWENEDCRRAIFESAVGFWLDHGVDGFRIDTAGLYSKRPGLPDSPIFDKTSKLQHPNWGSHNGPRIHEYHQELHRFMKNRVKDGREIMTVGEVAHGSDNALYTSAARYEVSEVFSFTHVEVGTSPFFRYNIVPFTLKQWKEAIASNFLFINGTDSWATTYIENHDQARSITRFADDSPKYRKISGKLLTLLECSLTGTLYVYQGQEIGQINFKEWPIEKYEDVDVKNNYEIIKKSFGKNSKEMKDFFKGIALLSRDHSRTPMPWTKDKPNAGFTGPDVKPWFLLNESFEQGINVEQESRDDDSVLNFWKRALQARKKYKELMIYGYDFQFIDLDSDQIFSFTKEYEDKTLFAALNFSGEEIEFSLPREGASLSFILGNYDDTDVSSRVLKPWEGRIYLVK

Compound: CC1(C)CC[C@]2(C(=O)O)CC[C@]3(C)C(=CC[C@@H]4[C@@]5(C)CC[C@H](O)C(C)(C)[C@@H]5CC[C@]43C)[C@@H]2C1 [oleanolic acid]
- inhibition type (α-glucosidase [1]): non-competitive

Compound: C[C@H]1O[C@H](O[C@H]2[C@H](O)[C@@H](O)[C@@H](O[C@H]3[C@H](O)[C@@H](O)C(O)O[C@@H]3CO)O[C@@H]2CO)[C@H](O)[C@@H](O)[C@@H]1N[C@H]1C=C(CO)[C@@H](O)[C@H](O)[C@H]1O (stereo partly drawn) [acarbose, reference compound]
- postprandial blood glucose levels vs control [2]: significantly suppressed
- blood glucose level at 30 min [2]: 10.76 ± 0.39 mM
- inhibition type (α-glucosidase [1]): competitive
- effect on blood glucose level after oral glucose [3]: no significant effect

Compound: C[C@H]1[C@H](C)CC[C@]2(C(=O)O)CC[C@]3(C)C(=CC[C@@H]4[C@@]5(C)CC[C@H](O)C(C)(C)[C@@H]5CC[C@]43C)[C@H]12 [ursolic acid]
- inhibition type (α-glucosidase [1]): non-competitive

Compound: C=C(C)[C@@H]1CC[C@]2(C(=O)O)CC[C@]3(C)[C@H](CC[C@@H]4[C@@]5(C)CC[C@H](O)C(C)(C)[C@@H]5CC[C@]43C)[C@@H]12 [BA, betulinic acid]
- postprandial blood glucose levels vs control [2]: significantly suppressed
- blood glucose level at 30 min [2]: 10.46 ± 0.31 mM
- fold stronger than acarbose (IC50) (α-glucosidase [4]; BA IC50 vs acarbose IC50): approximately 50 fold
- IC50 (α-glucosidase [4]; pNPG 2.5 mM, pH 6.8, 37 °C, read-out: IC50 against α-glucosidase): 16.8 ± 1.16 µM
- inhibition type (α-glucosidase [5]; Lineweaver-Burk plot, BA 0, 12 and 24 μM, 0.2 U/mL enzyme): non-competitive
- Ki (α-glucosidase [5]; from secondary plot of slope vs. BA, read-out: inhibition kinetic constant (Ki)): 38.5 µM
- Kd (α-glucosidase [6]): 55.3 µM
- IC50 (α-glucosidase [7]): 10.6 to 83.6 µM
- Interaction (α-glucosidase [8]; BA 5 μM + acarbose 600 μM): SY (Vab − Vc < −0.1 is considered as the synergistic (SY) interaction between BA and acarbose)
- Vab (observed residual activity) (α-glucosidase [8]; BA 5 μM + acarbose 600 μM): 0.47
- Vab − Vc (α-glucosidase [8]; BA 5 μM + acarbose 600 μM): −0.12
- Vc (expected residual activity) (α-glucosidase [8]; BA 5 μM + acarbose 600 μM): 0.59
- Interaction (α-glucosidase [8]; BA 5 μM + acarbose 800 μM): SY (Vab − Vc < −0.1 is considered as the synergistic (SY) interaction between BA and acarbose)
- Vab (observed residual activity) (α-glucosidase [8]; BA 5 μM + acarbose 800 μM): 0.42
- Vab − Vc (α-glucosidase [8]; BA 5 μM + acarbose 800 μM): −0.15
- Vc (expected residual activity) (α-glucosidase [8]; BA 5 μM + acarbose 800 μM): 0.56
- Interaction (α-glucosidase [8]; BA 5 μM + acarbose 1000 μM): SY (Vab − Vc < −0.1 is considered as the synergistic (SY) interaction between BA and acarbose)
- Vab (observed residual activity) (α-glucosidase [8]; BA 5 μM + acarbose 1000 μM): 0.41
- Vab − Vc (α-glucosidase [8]; BA 5 μM + acarbose 1000 μM): −0.13
- Vc (expected residual activity) (α-glucosidase [8]; BA 5 μM + acarbose 1000 μM): 0.53
- Interaction (α-glucosidase [8]; BA 10 μM + acarbose 600 μM): SY (Vab − Vc < −0.1 is considered as the synergistic (SY) interaction between BA and acarbose)
- Vab (observed residual activity) (α-glucosidase [8]; BA 10 μM + acarbose 600 μM): 0.39
- Vab − Vc (α-glucosidase [8]; BA 10 μM + acarbose 600 μM): −0.18
- Vc (expected residual activity) (α-glucosidase [8]; BA 10 μM + acarbose 600 μM): 0.57
- Interaction (α-glucosidase [8]; BA 10 μM + acarbose 800 μM): SY (Vab − Vc < −0.1 is considered as the synergistic (SY) interaction between BA and acarbose)
- Vab (observed residual activity) (α-glucosidase [8]; BA 10 μM + acarbose 800 μM): 0.36
- Vab − Vc (α-glucosidase [8]; BA 10 μM + acarbose 800 μM): −0.18
- Vc (expected residual activity) (α-glucosidase [8]; BA 10 μM + acarbose 800 μM): 0.54
- Interaction (α-glucosidase [8]; BA 10 μM + acarbose 1000 μM): SY (Vab − Vc < −0.1 is considered as the synergistic (SY) interaction between BA and acarbose)
- Vab (observed residual activity) (α-glucosidase [8]; BA 10 μM + acarbose 1000 μM): 0.34
- Vab − Vc (α-glucosidase [8]; BA 10 μM + acarbose 1000 μM): −0.17
- Vc (expected residual activity) (α-glucosidase [8]; BA 10 μM + acarbose 1000 μM): 0.51
- Interaction (α-glucosidase [8]; BA 15 μM + acarbose 600 μM): SY (Vab − Vc < −0.1 is considered as the synergistic (SY) interaction between BA and acarbose)
- Vab (observed residual activity) (α-glucosidase [8]; BA 15 μM + acarbose 600 μM): 0.32
- Vab − Vc (α-glucosidase [8]; BA 15 μM + acarbose 600 μM): −0.18
- Vc (expected residual activity) (α-glucosidase [8]; BA 15 μM + acarbose 600 μM): 0.50
- Interaction (α-glucosidase [8]; BA 15 μM + acarbose 800 μM): SY (Vab − Vc < −0.1 is considered as the synergistic (SY) interaction between BA and acarbose)
- Vab (observed residual activity) (α-glucosidase [8]; BA 15 μM + acarbose 800 μM): 0.29
- Vab − Vc (α-glucosidase [8]; BA 15 μM + acarbose 800 μM): −0.18
- Vc (expected residual activity) (α-glucosidase [8]; BA 15 μM + acarbose 800 μM): 0.48
- Interaction (α-glucosidase [8]; BA 15 μM + acarbose 1000 μM): SY (Vab − Vc < −0.1 is considered as the synergistic (SY) interaction between BA and acarbose)
- Vab (observed residual activity) (α-glucosidase [8]; BA 15 μM + acarbose 1000 μM): 0.28
- Vab − Vc (α-glucosidase [8]; BA 15 μM + acarbose 1000 μM): −0.16
- Vc (expected residual activity) (α-glucosidase [8]; BA 15 μM + acarbose 1000 μM): 0.45
- effect on blood glucose level after oral glucose [3]: no significant effect
